Laboratory results published in PMC13192270, “RhlR quorum-sensing receptor ligand sensitivity regulates the differential expression of phenazine genes in Pseudomonas aeruginosa” (Journal of Bacteriology, 2026).
Numbering of substitutions follows the chain as printed.

Columns and labels:
[1] = target: T1, RhlR A44M in ΔrhlI strain (Pseudomonas aeruginosa, UniProt P54292, A44M); experiment: ChIP-seq of RhlR-binding sites; format: cell-based; conditions: 2 µM C4HSL
T1 construct: expressed in transfected cells; host or cells: P. aeruginosa UCBPP-PA14 ΔrhlI, mutant allele placed on the chromosome at the native rhlR locus
T1 sequence (P54292 1-241 A44M): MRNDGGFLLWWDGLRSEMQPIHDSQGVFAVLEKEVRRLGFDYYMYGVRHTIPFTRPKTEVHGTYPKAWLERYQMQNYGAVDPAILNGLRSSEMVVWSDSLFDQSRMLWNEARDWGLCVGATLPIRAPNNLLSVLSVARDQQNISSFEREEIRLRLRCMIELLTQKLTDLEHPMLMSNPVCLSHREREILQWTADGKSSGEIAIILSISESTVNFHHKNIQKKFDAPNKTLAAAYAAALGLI
Procedure: (§1) P. aeruginosa strains were grown overnight, back diluted 1:100 in fresh LB media, and grown to an OD600 = 2.0. Crosslinking, lysis, and immunoprecipitation were performed as previously described ([37]).

[2] = target: T2, RhlR T58L in ΔrhlI strain (Pseudomonas aeruginosa, UniProt P54292, T58L); experiment: ChIP-seq of RhlR-binding sites; format: cell-based; conditions: 2 µM C4HSL
T2 construct: expressed in transfected cells; host or cells: P. aeruginosa UCBPP-PA14 ΔrhlI, mutant allele placed on the chromosome at the native rhlR locus
T2 sequence (P54292 1-241 T58L): T1 sequence (P54292 1-241 A44M) with M44A, T58L
Source text: To determine the molecular basis for lower levels of phz gene expression in a background that expressed a hypersensitive variant of RhlR, we assessed expression of the pqsABCDE operon ([51]). PqsE is required for optimal expression of the phz genes and, thus, pyocyanin production. RhlR was previously characterized as a repressor of the pqsABCDE operon. We hypothesized that a C4HSL hypersensitive variant would repress pqsABCDE expression, which could lead to the observed decrease in phz gene expression. Indeed, pqsA RNA levels were 20% lower in a strain expressing RhlR T58L compared to WT RhlR (Fig. 6A; Table 2). To confirm that the decrease in gene expression led to a decrease in the available PqsE protein that was capable of interacting with RhlR to specifically drive it to the phz promoter, we performed western blot analyses to measure PqsE protein levels in strains expressing RhlR variants (Fig. 7A). […] Thus, we hypothesized that when PqsE levels fall below a certain concentration, PqsE homodimerization cannot occur, thereby preventing PqsE-RhlR complex formation and reducing promoter occupancy. […] We highlight phzA1 and phzM, which share a promoter (Fig. S10A), rhlA (Fig. S10B), and lecB (Fig. S10C) because of the role of the phz and rhlA promoters in regulating pyocyanin and rhamnolipid production (Fig. 5) and because lecB is a well-characterized PqsE-dependent promoter ([37]). As expected, RhlR T58L had lower promoter occupancy than WT RhlR at the phzA1 promoter, likely due to the lower levels of PqsE present (Fig. 7B; Fig. S10A). Conversely, RhlR occupancy at the rhlA promoter was nearly unchanged from WT RhlR (Fig. 7B; Fig. S10B), reflecting the ability of RhlR to bind the promoter primarily through its dependency on C4HSL.
as §1

For CCCC(=O)N[C@H]1CCOC1=O [C4HSL, N-butyryl-L-homoserine lactone], the “ChIP-seq enrichment at PA14_01490 (rahU) (peak 139,733)” value [1] was 36.29, the “ChIP-seq enrichment at PA14_06320 (peak 560,072)” value [1] was 207.8 and the “ChIP-seq enrichment at PA14_10360 (peak 895,433)” value [1] was 557.9. For the same molecule, the “ChIP-seq enrichment at PA14_16100*, PA14_16110 (peak 1,372,370)” value [1] was 41.27, the “ChIP-seq enrichment at PA14_18800 (peak 1,620,628)” value [1] was 459 and the “ChIP-seq enrichment at PA14_18810 operon (peak 1,621,028)” value [1] was 216.7. The “ChIP-seq enrichment at PA14_20130, PA14_20140 (fpr) (peak 1,735,823)” value [1] was 187.2, the “ChIP-seq enrichment at PA14_21020 (azeB) operon, PA14_21030 (peak 1,816,906)” value [1] was 2,385.1 and the “ChIP-seq enrichment at PA14_22090 (peak 1,921,598)” value [1] was 403.3. The “ChIP-seq enrichment at PA14_28250*, PA14_28260 (peak 2,444,398)” value [1] was 18.9, the “ChIP-seq enrichment at PA14_29620, fhp operon (peak 2,568,048)” value [1] was 698.1 and the “ChIP-seq enrichment at PA14_30570, PA14_30580 (vqsR) (peak 2,647,472)” value [1] was 454.9. For the same molecule, the “ChIP-seq enrichment at PA14_30840* (peak 2,677,542)” value [1] was 631.2, the “ChIP-seq enrichment at PA14_37745 operon (peak 3,364,761)” value [1] was 0 and the “ChIP-seq enrichment at PA14_48140 operon (peak 4,285,523)” value [1] was 89.06. The “ChIP-seq enrichment at PA14_48530 operon (peak 4,313,855)” value [1] was 870.2, the “ChIP-seq enrichment at PA14_49310 (peak 4,382,169)” value [1] was 273.4 and the “ChIP-seq enrichment at PA14_49740, PA14_49750 operon (peak 4,425,570)” value [1] was 518.7. For the same molecule, the “ChIP-seq enrichment at PA14_57970*, PA14_57980 (peak 5,159,548)” value [1] was 16.73, the “ChIP-seq enrichment at PA14_59180* (peak 5,268,881)” value [1] was 320.1 and the “ChIP-seq enrichment at PA_48530* (peak 4,314,560)” value [1] was 476.8. For the same molecule, the “ChIP-seq enrichment at arcD operon (peak 6,093,032)” value [1] was 97.46, the “ChIP-seq enrichment at hcnA operon, exoY (peak 3,236,436)” value [1] was 998.8 and the “ChIP-seq enrichment at hsiA2 operon, hcpD (peak 3,831,541)” value [1] was 840.8. The “ChIP-seq enrichment at lasA (peak 3,600,666)” value [1] was 0, the “ChIP-seq enrichment at lasB (peak 1,387,361)” value [1] was 155.1 and the “ChIP-seq enrichment at lecB, PA14_20620 operon (peak 1,774,336)” value [1] was 3,659.5. For the same molecule, the “ChIP-seq enrichment at pa1L (peak 2,721,761)” value [1] was 431.4, the “ChIP-seq enrichment at peak 5,414,219” value [1] was 86.36 and the “ChIP-seq enrichment at phzA1 operon, phzM (peak 813,529)” value [1] was 1,47.87. For the same molecule, the “ChIP-seq enrichment at phzA2 operon (peak 3,561,969)” value [1] was 134.6, the “ChIP-seq enrichment at phzB1*, phzC1 (peak 812,427)” value [1] was 872.5 and the “ChIP-seq enrichment at phzB2*, phzC2 (peak 3,561,157)” value [1] was 241.2. For the same molecule, the “ChIP-seq enrichment at phzH (peak 64,211)” value [1] was 1,287.1, the “ChIP-seq enrichment at rhlA operon (peak 1,648,391)” value [1] was 636 and the “ChIP-seq enrichment at rhlI (peak 1,651,804)” value [1] was 425. The “ChIP-seq enrichment at rmlB operon (peak 6,082,366)” value [1] was 428.1, the “ChIP-seq enrichment at rpsL operon (peak 754,615)” value [1] was 128.1 and the “ChIP-seq enrichment at tnpS, tnpT operon (peak 3,188,223)” value [1] was 255. The “ChIP-seq enrichment at PA14_01490 (rahU) (peak 139,733)” value [2] was 1,262.3, the “ChIP-seq enrichment at PA14_06320 (peak 560,072)” value [2] was 896.4 and the “ChIP-seq enrichment at PA14_10360 (peak 895,433)” value [2] was 513.5. For the same molecule, the “ChIP-seq enrichment at PA14_16100*, PA14_16110 (peak 1,372,370)” value [2] was 1,439.9, the “ChIP-seq enrichment at PA14_18800 (peak 1,620,628)” value [2] was 405.8 and the “ChIP-seq enrichment at PA14_18810 operon (peak 1,621,028)” value [2] was 87.2. The “ChIP-seq enrichment at PA14_20130, PA14_20140 (fpr) (peak 1,735,823)” value [2] was 380.5, the “ChIP-seq enrichment at PA14_21020 (azeB) operon, PA14_21030 (peak 1,816,906)” value [2] was 3,188.5 and the “ChIP-seq enrichment at PA14_22090 (peak 1,921,598)” value [2] was 349.8. For the same molecule, the “ChIP-seq enrichment at PA14_28250*, PA14_28260 (peak 2,444,398)” value [2] was 159.5, the “ChIP-seq enrichment at PA14_29620, fhp operon (peak 2,568,048)” value [2] was 2,263.3 and the “ChIP-seq enrichment at PA14_30570, PA14_30580 (vqsR) (peak 2,647,472)” value [2] was 554.8. The “ChIP-seq enrichment at PA14_30840* (peak 2,677,542)” value [2] was 4,222.3, the “ChIP-seq enrichment at PA14_37745 operon (peak 3,364,761)” value [2] was 433.4 and the “ChIP-seq enrichment at PA14_48140 operon (peak 4,285,523)” value [2] was 340.9. For the same molecule, the “ChIP-seq enrichment at PA14_48530 operon (peak 4,313,855)” value [2] was 867.6, the “ChIP-seq enrichment at PA14_49310 (peak 4,382,169)” value [2] was 673.4 and the “ChIP-seq enrichment at PA14_49740, PA14_49750 operon (peak 4,425,570)” value [2] was 2,142.3. The “ChIP-seq enrichment at PA14_57970*, PA14_57980 (peak 5,159,548)” value [2] was 228.8, the “ChIP-seq enrichment at PA14_59180* (peak 5,268,881)” value [2] was 216.4 and the “ChIP-seq enrichment at PA_48530* (peak 4,314,560)” value [2] was 229. The “ChIP-seq enrichment at arcD operon (peak 6,093,032)” value [2] was 900.8, the “ChIP-seq enrichment at hcnA operon, exoY (peak 3,236,436)” value [2] was 1,543.7 and the “ChIP-seq enrichment at hsiA2 operon, hcpD (peak 3,831,541)” value [2] was 1,100.7. For the same molecule, the “ChIP-seq enrichment at lasA (peak 3,600,666)” value [2] was 211.7, the “ChIP-seq enrichment at lasB (peak 1,387,361)” value [2] was 347.7 and the “ChIP-seq enrichment at lecB, PA14_20620 operon (peak 1,774,336)” value [2] was 13,604.8. The “ChIP-seq enrichment at pa1L (peak 2,721,761)” value [2] was 171.4, the “ChIP-seq enrichment at peak 5,414,219” value [2] was 697 and the “ChIP-seq enrichment at phzA1 operon, phzM (peak 813,529)” value [2] was 2,515.8. The “ChIP-seq enrichment at phzA2 operon (peak 3,561,969)” value [2] was 562.6, the “ChIP-seq enrichment at phzB1*, phzC1 (peak 812,427)” value [2] was 968.1 and the “ChIP-seq enrichment at phzB2*, phzC2 (peak 3,561,157)” value [2] was 75.06. For the same molecule, the “ChIP-seq enrichment at phzH (peak 64,211)” value [2] was 800.4, the “ChIP-seq enrichment at rhlA operon (peak 1,648,391)” value [2] was 3,584.5 and the “ChIP-seq enrichment at rhlI (peak 1,651,804)” value [2] was 263.1. The “ChIP-seq enrichment at rmlB operon (peak 6,082,366)” value [2] was 2,634, the “ChIP-seq enrichment at rpsL operon (peak 754,615)” value [2] was 416.1 and the “ChIP-seq enrichment at tnpS, tnpT operon (peak 3,188,223)” value [2] was 237.1.
